“And” between values parts separate entries of the source, which are not always exact repeats. Identical values can stand only once.
Assays:
RS4;11 xenograft = assay: RS4;11 mouse xenograft efficacy (tumour volume); format: in vivo, C.B-17 SCID mouse; set-up: key to tumour volume, individual animals: tumour volume in mm³, length × width²/0.52; conditions: for tumour volume, individual animals: 10 mg/kg; for Tumour volume, Geo Mean: RS4;11 xenograft
Protocol: Female C.B.−17 SCID mice were purchased from Charles River Laboratories. Mice were 5–8 weeks old at the time of tumour implantation. All xenograft studies were conducted at our Association for the Assessment and Accreditation of Laboratory Animal Care accredited facility in Waltham, MA in accordance with ethical regulations described in the guidelines established by the internal Institutional Animal Care and Use Committee. The dendrimer conjugates were formulated in citrate/phosphate buffer pH 5.0, diluted 1:10 with 5% glucose containing 1% w/v Kolliphor HS15, and AZD4320 was formulated in 30% HP-β-CD and dosed as a weekly intravenous (IV) administration at a volume of 5 ml/kg at the indicated doses. Five million RS4;11, five million SUDHL-4 or five million OCI-LY-10 cells were injected subcutaneously in the right flank of mice in a volume of 0.1 ml. Tumour volumes (measured by caliper), animal body weight, and tumor condition were recorded twice weekly for the duration of the study. The tumour volume was calculated (taking length to be the longest diameter across the tumour and width to be the corresponding perpendicular diameter) using the formula: length (mm) x width (mm)^2/0.52. For efficacy studies, mice were randomized based on tumour volumes using stratified sampling and enrolled into control and treatment groups. Tumour growth inhibition from the start of treatment was quantified by measuring the difference in tumour volume between control and treated groups. Survival analysis was evaluated using Mantel-Cox test. Tumours were also taken for bioanalysis.

cleaved caspase-3 (CC3) = assay: Cleaved caspase-3 in RS4;11 tumours by MSD ELISA; format: in vivo, C.B-17 SCID mouse; conditions: for CC3 PD fold over vehicle, individual tumours: RS4;11, single dose 10 mg/kg or equivalent
Protocol: Tumours were excised, snap frozen in liquid nitrogen and stored at –80 °C. Tumours were homogenised in lysis buffer containing protease and phosphatase inhibitors, protein concentration determined by Pierce BCA Protein Assay Kit and diluted in lysis buffer to a protein concentration of 0.4 μg/μL. Cleaved caspase-3 (CC3) was measured using the mesoscale cleaved caspase-3 (Asp175) assay whole cell lysate kit according to manufacturer’s instructions. Induction of CC3 was expressed as fold change of treated tumours over vehicle control.

telemetered rats = assay: Conscious rat telemetry (QRS amplitude, blood pressure, tolerability); conditions: for QRS amplitude (mV change): individual rats; for QRS amplitude (mV change), Mean: mean of rats;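 as to all read-outs here: male Han Wistar rats carrying implanted telemetry transmitters, with ECG and arterial pressure recorded continuously while unrestrained in their home cage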
From the text: Male Han Wistar rats were implanted with HD‐S11 transmitters (Data Sciences International, St. Paul, MN USA) under isoflurane anaesthesia, the telemetry transmitter was placed in the peritoneal cavity, the arterial blood pressure catheter was placed in the terminal abdominal aorta and the ECG electrodes were sutured, one at the dorsal surface of the xiphoid process and one at the anterior mediastinum, close to the right atrium[42]. Animals were allowed to recover for at least 2 weeks and were around 2–3 months at the time of experimentation. The animals were pair‐housed in standard rat cages with a non‐instrumented companion throughout the study. Cages were prepared with bedding material and enrichment.
Telemetry recordings took place in the home cage. […] The animals were removed from the cage temporarily for dosing and blood sampling. Animals were not subject to restraint except where dosing and blood sampling was performed. Data acquisition used Dataquest Open A.R.T.™ with HEM software version 4.2 (Notocord Inc).
For evaluation of AZD4320, n = 8 rats received single doses of 0 (vehicle: 30% Kleptose, pH9) or 10 mg/kg AZD4320, administered as a 30-min intravenous infusion. A cross-over study design was used, with an interval of 7 days between treatments.
Data for all parameters were collected continuously during the recording period. The continuous data from each animal was binned into chosen time intervals of varying length and averaged to generate a single data point for each reported nominal time. Each reported nominal timepoint was then averaged across each of the animals tested for each dose level.

[1] = rat, AZD4320 10 mg/kg, 0 h post dose
[2] = rat, Dose 10 mg/kg (AZD4320 equivalent 10 for AZD4320, 3 for conjugates)

With `CN(CCO)CCC(CSc1ccccc1)Nc1ccc(S(=O)(=O)NC(=O)c2ccc(N3CCC(C(O)c4ccccc4-c4ccc(Cl)cc4)CC3)cc2)cc1S(=O)(=O)C(F)(F)F` (stereo not drawn) [AZD4320] the “tumour volume, individual animals” value (RS4;11 xenograft; Day 38, in mm³ (unit assumed)) was 591 and 667 and 633 and 678, the “tumour volume, individual animals” value (RS4;11 xenograft; Day 41, in mm³ (unit assumed)) was 365 and 322 and 378 and 334 and the “tumour volume, individual animals” value (RS4;11 xenograft; Day 45, in mm³ (unit assumed)) was 218 and 235 and 397 and 259. For the same molecule, the “tumour volume, individual animals” value (RS4;11 xenograft; Day 48) was 0 (2×) and 160 and 156, the “tumour volume, individual animals” value (RS4;11 xenograft; Day 52) was 0 (3×) and 144 and the “tumour volume, individual animals” value (RS4;11 xenograft; Day 55) was 0 (3×) and 87. For the same molecule, the “tumour volume, individual animals” value (RS4;11 xenograft; Day 59, in mm³ (unit assumed)) was 144 and 155 and 220 and 196, the “tumour volume, individual animals” value (RS4;11 xenograft; Day 63, in mm³ (unit assumed)) was 388 and 353 and 396 and 530 and the “tumour volume, individual animals” value (RS4;11 xenograft; Day 66, in mm³ (unit assumed)) was 257 and 221 and 387 and 438. The “tumour volume, individual animals” value (RS4;11 xenograft; Day 69, in mm³ (unit assumed)) was 351 and 316 and 514 and 702, the “tumour volume, individual animals” value (RS4;11 xenograft; Day 73, in mm³ (unit assumed)) was 1003 and 568 and 1069 and 1242 and the “anti-tumour activity” value (RS4;11 xenograft; RS4;11 tumours, IV, 10 mg/kg or equivalent) was “complete regression”. The “Tumour volume, Geo Mean” value (RS4;11 xenograft; 10 mg/kg or equivalent, day 29, in mm³ (unit assumed)) was 450.827, the “Tumour volume, Geo Mean” value (RS4;11 xenograft; 10 mg/kg or equivalent, day 31, in mm³ (unit assumed)) was 419.877 and the “Tumour volume, Geo Mean” value (RS4;11 xenograft; 10 mg/kg or equivalent, day 32, in mm³ (unit assumed)) was 128.263. The “Tumour volume, Geo Mean” value (RS4;11 xenograft; 10 mg/kg or equivalent, day 34, in mm³ (unit assumed)) was 1, the “Tumour volume, Geo Mean” value (RS4;11 xenograft; 10 mg/kg or equivalent, day 38, in mm³ (unit assumed)) was 1 and the “Tumour volume, Geo Mean” value (RS4;11 xenograft; 10 mg/kg or equivalent, day 41, in mm³ (unit assumed)) was 1. For the same molecule, the “Tumour volume, Geo Mean” value (RS4;11 xenograft; 10 mg/kg or equivalent, day 45, in mm³ (unit assumed)) was 1, the “Tumour volume, Geo Mean” value (RS4;11 xenograft; 10 mg/kg or equivalent, day 48, in mm³ (unit assumed)) was 1 and the “Tumour volume, Geo Mean” value (RS4;11 xenograft; 10 mg/kg or equivalent, day 56, in mm³ (unit assumed)) was 4.217. For the same molecule, the “Tumour volume, Geo Mean” value (RS4;11 xenograft; 10 mg/kg or equivalent, day 59, in mm³ (unit assumed)) was 31.9033, the “CC3 PD fold over vehicle, individual tumours” value (from here on “CC3 PD fold over vehicle”) (cleaved caspase-3 (CC3); 0.5 h, 10 mg/kg) was 36.58 fold over vehicle and 31.76 fold over vehicle and the “CC3 PD fold over vehicle” value (cleaved caspase-3 (CC3); 1 h, 10 mg/kg) was 36.44 fold over vehicle and 36.82 fold over vehicle. For the same molecule, the “CC3 PD fold over vehicle” value (cleaved caspase-3 (CC3); 5 h, 10 mg/kg) was 42.22 fold over vehicle and 39.06 fold over vehicle, the “CC3 PD fold over vehicle” value (cleaved caspase-3 (CC3); 24 h, 10 mg/kg) was 21.02 fold over vehicle and 47.67 fold over vehicle and the “time of onset of CC3 activation” value (cleaved caspase-3 (CC3); RS4;11 tumours, 10 mg/kg or equivalent) was at most 0.5 h. The “maximal activation of cleaved caspase-3 (CC3)” value (cleaved caspase-3 (CC3); RS4;11 tumours, 10 mg/kg, by 5 h, sustained for 24 h) was 40 fold, the “decrease in QRS amplitude” value (telemetered rats; rat, 10 mg/kg AZD4320) was 40% and the “rats in which dose was tolerated” value (telemetered rats; rat, 10 mg/kg AZD4320, 8 rats evaluated) was 6 of the 8. For the same molecule, the “QRS amplitude (mV change)” value (telemetered rats; [1]) was 0 mV, the “QRS amplitude (mV change), Mean” value (telemetered rats; [1]) was 0 mV and the “QRS amplitude (mV change)” value (telemetered rats; rat, AZD4320 10 mg/kg, 0.5 h post dose, 10 mg/kg) was 0.05 mV and -0.49 mV (2×) and -0.03 mV and 0.27 mV and -0.09 mV. For the same molecule, the “QRS amplitude (mV change), Mean” value (telemetered rats; rat, AZD4320 10 mg/kg, 0.5 h post dose) was -0.13 mV, the “QRS amplitude (mV change)” value (telemetered rats; rat, AZD4320 10 mg/kg, 1 h post dose, 10 mg/kg) was -0.55 mV and -0.92 mV and 0.04 mV and -0.24 mV and -0.19 mV and -0.87 mV and the “QRS amplitude (mV change), Mean” value (telemetered rats; rat, AZD4320 10 mg/kg, 1 h post dose) was -0.46 mV. The “QRS amplitude (mV change)” value (telemetered rats; rat, AZD4320 10 mg/kg, 1.5 h post dose, 10 mg/kg) was -0.76 mV and -0.96 mV (2×) and 0.29 mV and -0.3 mV and -0.18 mV, the “QRS amplitude (mV change), Mean” value (telemetered rats; rat, AZD4320 10 mg/kg, 1.5 h post dose) was -0.48 mV and the “QRS amplitude (mV change)” value (telemetered rats; rat, AZD4320 10 mg/kg, 2 h post dose, 10 mg/kg) was -0.73 mV and -0.96 mV and -0.38 mV and -0.26 mV (2×) and -1.03 mV. For the same molecule, the “QRS amplitude (mV change), Mean” value (telemetered rats; rat, AZD4320 10 mg/kg, 2 h post dose) was -0.60 mV, the “QRS amplitude (mV change)” value (telemetered rats; rat, AZD4320 10 mg/kg, 3 h post dose, 10 mg/kg) was -0.79 mV and -0.63 mV and -0.28 mV and -0.4 mV and -0.48 mV and -0.99 mV and the “QRS amplitude (mV change), Mean” value (telemetered rats; rat, AZD4320 10 mg/kg, 3 h post dose) was -0.60 mV. The “QRS amplitude (mV change)” value (telemetered rats; rat, AZD4320 10 mg/kg, 3.5 h post dose, 10 mg/kg) was -0.8 mV and -0.81 mV and -0.54 mV and -0.38 mV and -0.47 mV and -1 mV, the “QRS amplitude (mV change), Mean” value (telemetered rats; rat, AZD4320 10 mg/kg, 3.5 h post dose) was -0.67 mV and the “QRS amplitude (mV change)” value (telemetered rats; rat, AZD4320 10 mg/kg, 4 h post dose, 10 mg/kg) was -0.8 mV and -1.02 mV and -0.16 mV and -0.35 mV and -0.65 mV and -0.98 mV. The “QRS amplitude (mV change), Mean” value (telemetered rats; rat, AZD4320 10 mg/kg, 4 h post dose) was -0.66 mV, the “QRS amplitude (mV change)” value (telemetered rats; rat, AZD4320 10 mg/kg, 6 h post dose, 10 mg/kg) was -0.76 mV and -1 mV and -0.2 mV and -0.16 mV and -0.57 mV and -0.7 mV and the “QRS amplitude (mV change), Mean” value (telemetered rats; rat, AZD4320 10 mg/kg, 6 h post dose) was -0.57 mV. For the same molecule, the “QRS amplitude (mV change)” value (telemetered rats; rat, AZD4320 10 mg/kg, 8 h post dose, 10 mg/kg) was -0.63 mV (3×) and 0.08 mV and -0.08 mV and -0.57 mV, the “QRS amplitude (mV change), Mean” value (telemetered rats; rat, AZD4320 10 mg/kg, 8 h post dose) was -0.41 mV and the “QRS amplitude (mV change)” value (telemetered rats; rat, AZD4320 10 mg/kg, 10 h post dose, 10 mg/kg) was -0.56 mV and -0.75 mV and 0.54 mV and 0.03 mV and -0.61 mV and -0.59 mV. For the same molecule, the “QRS amplitude (mV change), Mean” value (telemetered rats; rat, AZD4320 10 mg/kg, 10 h post dose) was -0.32 mV, the “QRS amplitude (mV change)” value (telemetered rats; rat, AZD4320 10 mg/kg, 12 h post dose, 10 mg/kg) was -0.6 mV and -0.97 mV and -0.25 mV and 0.18 mV and -0.42 mV and -0.58 mV and the “QRS amplitude (mV change), Mean” value (telemetered rats; rat, AZD4320 10 mg/kg, 12 h post dose) was -0.44 mV. For the same molecule, the “QRS amplitude (mV change)” value (telemetered rats; rat, AZD4320 10 mg/kg, 16 h post dose, 10 mg/kg) was -0.44 mV and -0.8 mV and 0.61 mV and -0.14 mV and -0.6 mV and -0.72 mV, the “QRS amplitude (mV change), Mean” value (telemetered rats; rat, AZD4320 10 mg/kg, 16 h post dose) was -0.35 mV and the “QRS amplitude (mV change)” value (telemetered rats; rat, AZD4320 10 mg/kg, 24 h post dose, 10 mg/kg) was -0.56 mV and -0.96 mV and -0.74 mV and -0.13 mV and -0.57 mV and -0.76 mV. For the same molecule, the “QRS amplitude (mV change), Mean” value (telemetered rats; rat, AZD4320 10 mg/kg, 24 h post dose) was -0.62 mV, the “QRS amplitude (mV change), Mean” value (telemetered rats; rat, AZD4320 10 mg/kg, […] post dose) was -0.58 mV and the Blood pressure decrease (telemetered rats; [2]) was “Yes”. For the same molecule, the QRS amplitude decrease (telemetered rats; [2]) was “Yes”, the “Tolerated?” value (telemetered rats; [2]) was 6/8 and the “effect on QRS amplitude” value (telemetered rats; telemetered rat, AZD4320 10 mg/kg, conjugates 30 mg/kg IV) was “marked and prolonged reduction in QRS amplitude”.
